Assay results reported in PubChem BioAssay (NCI).
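Briefly, cells in 96-well plates were exposed to five compound concentrations for 48 h, and endpoints were estimated by linear interpolation. GI50: concentration for 50% inhibition of growth. TGI marks complete inhibition of growth.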 Where a SMILES comes first, the peptide text is derived from it. [ ]: non-standard residue; d: D form. NMeY = CN[C@@H](Cc1ccc(O)cc1)C(=O)O; dNMeF = CN[C@H](Cc1ccccc1)C(=O)O; Sar = CNCC(=O)O

Tests used:
BT-549 breast = assay: NCI anticancer screen, dose series, 48 h
PC-3 prostate = assay: NCI anticancer screen, dose series, 48 h

SMILES: CC[C@H](C)[C@@H]1NC(=O)[C@H](Cc2ccc(O)cc2)N(C)C(=O)[C@H](Cc2ccccc2)NC(=O)CN(C)C(=O)[C@@H]2CCCN2C(=O)[C@@H](Cc2ccccc2)N(C)C(=O)[C@H](CC(C)C)NC1=O (cyclo(F[NMeY]IL[dNMeF]P[Sar]))
- GI50 (BT-549 breast): 407 nM
- TGI (BT-549 breast): 4.51 µM
- GI50 (PC-3 prostate): 0.28 µM
- TGI (PC-3 prostate): 6.21 µM

SMILES: CC(=O)OC1CCC2(C)C(CCC3C4CC=C(C(C)=O)C4(C)OC(=O)CC32)C1 (centres undefined)
- GI50 (BT-549 breast): 1580 nM
- TGI (BT-549 breast): 3.08 µM
- GI50 (PC-3 prostate): 4.56 µM
- TGI (PC-3 prostate): 16.7 µM

SMILES: CCOC(=O)c1ccc(Nc2sc(C(=O)c3cccc([N+](=O)[O-])c3)c(N)c2C#N)cc1
- GI50 (BT-549 breast): 56.8 nM
- TGI (BT-549 breast): 39.4 µM
- GI50 (PC-3 prostate): 0.179 µM
- TGI (PC-3 prostate): > 32.1 µM

SMILES: Cc1ncc(C(=O)Nc2ccc(CN3CCN(C)CC3)c(C(F)(F)F)c2)cc1C#Cc1cnc(N)c2ncccc12
- GI50 (BT-549 breast): 1650 nM
- TGI (BT-549 breast): 18.9 µM
- GI50 (PC-3 prostate): 1.22 µM
- TGI (PC-3 prostate): 2.8 µM

SMILES: Nc1c(C(=O)c2cccc(C#CCN3CCOCC3)c2)cnn1-c1ccc(F)cc1
- GI50 (BT-549 breast): > 25000 nM
- TGI (BT-549 breast): > 25 µM
- GI50 (PC-3 prostate): 15.4 µM
- TGI (PC-3 prostate): > 25 µM

SMILES: O=C(NC(=S)NNC(=S)NNc1ccccc1)c1ccccc1
- GI50 (BT-549 breast): 11300 nM
- TGI (BT-549 breast): > 100 µM

SMILES: COc1ccc2[nH]c(=O)c(/C=C/C(=O)/C=C/c3ccc(O)c(OC)c3)cc2c1
- GI50 (BT-549 breast): 1370 nM
- TGI (BT-549 breast): 2.66 µM
- GI50 (PC-3 prostate): 1.83 µM
- TGI (PC-3 prostate): 4.94 µM

SMILES: COc1cccc(-n2ncc3c(N/N=C/c4ccc(S(C)(=O)=O)cc4)ncnc32)c1
- GI50 (BT-549 breast): 13500 nM
- TGI (BT-549 breast): > 25 µM
- GI50 (PC-3 prostate): 6.63 µM
- TGI (PC-3 prostate): > 20.9 µM

SMILES: Nc1c(C(=O)c2cccc(CCC3(O)CCCC3)c2)cnn1-c1ccc(F)cc1
- GI50 (BT-549 breast): 9750 nM
- TGI (BT-549 breast): > 25 µM
- GI50 (PC-3 prostate): 8.98 µM
- TGI (PC-3 prostate): > 25 µM

SMILES: N#CSCc1c(Cl)cccc1Cl
- GI50 (BT-549 breast): 2310 nM
- TGI (BT-549 breast): 7.48 µM
- GI50 (PC-3 prostate): 8.73 µM
- TGI (PC-3 prostate): > 100 µM

SMILES: C#C[C@@]1(O)[C@@H](CO)O[C@@H](n2ccc3c(N)ncnc32)[C@@H]1O
- GI50 (BT-549 breast): 1630 nM
- TGI (BT-549 breast): 3.64 µM
- GI50 (PC-3 prostate): 0.808 µM
- TGI (PC-3 prostate): 3.54 µM

SMILES: CCCCCCCCCCCC[n+]1ccccc1
- GI50 (BT-549 breast): 1010 nM
- TGI (BT-549 breast): 3.03 µM
- GI50 (PC-3 prostate): 0.374 µM
- TGI (PC-3 prostate): 2.76 µM

SMILES: Nc1nc(N)c2c(ccc3nccc32)[nH]1
- GI50 (BT-549 breast): 3060 nM
- TGI (BT-549 breast): 24.1 µM
- GI50 (PC-3 prostate): 1.63 µM
- TGI (PC-3 prostate): > 64.2 µM

SMILES: C[C@H]1[C@H](C)CC[C@]2(C(=O)O)CC[C@]3(C)C(=CC[C@@H]4[C@@]5(C)CC[C@H](OC(=O)/C=C/c6ccc(O)cc6)C(C)(C)[C@@H]5CC[C@]43C)[C@H]12
- GI50 (BT-549 breast): 5110 nM
- TGI (BT-549 breast): 13.4 µM
- GI50 (PC-3 prostate): 6.94 µM
- TGI (PC-3 prostate): 24.6 µM

SMILES: COc1cc(Cn2ccc3c2-c2oncc2CC3)cc(OC)c1
- GI50 (PC-3 prostate): 11 µM
- TGI (PC-3 prostate): > 100 µM

SMILES: CCN(CC)CCCOc1cc(O)c2c(=O)cc(-c3ccccc3)oc2c1
- GI50 (BT-549 breast): 13300 nM
- TGI (BT-549 breast): 26.6 µM
- GI50 (PC-3 prostate): 10.8 µM
- TGI (PC-3 prostate): 25.3 µM

SMILES: COc1cc2nc(N3CCCC3)nc(Nc3ccccc3)c2cc1OC
- GI50 (BT-549 breast): 1690 nM
- TGI (BT-549 breast): 3.25 µM
- GI50 (PC-3 prostate): 1.71 µM
- TGI (PC-3 prostate): 3.45 µM

SMILES: CN(C)C(=O)c1cc2cnc(Nc3ccc(-c4csc5c(=O)cc(N6CCNCC6)oc45)cc3)nc2n1C1CCCC1
- GI50 (BT-549 breast): 1350 nM
- TGI (BT-549 breast): 3.15 µM
- GI50 (PC-3 prostate): 0.677 µM
- TGI (PC-3 prostate): 4.93 µM

SMILES: Cc1cc2c3ccccc3ccc2[n+]2ccccc12
- GI50 (BT-549 breast): 1400 nM
- TGI (BT-549 breast): 7.77 µM
- GI50 (PC-3 prostate): 3.38 µM
- TGI (PC-3 prostate): 32.1 µM

SMILES: O=Cc1ccc(Oc2c3ccccc3nc3occc23)cc1
- GI50 (PC-3 prostate): 19.5 µM
- TGI (PC-3 prostate): 58.6 µM

SMILES: O=C1c2cc3c(cc2[C@@H]2[C@H]1c1ccc([N+](=O)[O-])cc1C(=O)N2CCCCl)OCO3
- GI50 (PC-3 prostate): < 0.01 µM
- TGI (PC-3 prostate): > 44.5 µM

SMILES: CCN(C(=O)CCl)C(C)(C)C(SSSC(c1ccc(Cl)cc1)C(C)(C)N(CC)C(=O)CCl)c1ccc(Cl)cc1 (centres undefined)
- GI50 (BT-549 breast): 10300 nM
- TGI (BT-549 breast): 23 µM

SMILES: Cc1ccc2c(Nc3cccc(Cl)c3F)ncc(NC(=O)c3csc4c(N)ncnc34)c2c1
- GI50 (BT-549 breast): > 100000 nM
- TGI (BT-549 breast): > 100 µM
- GI50 (PC-3 prostate): > 100 µM
- TGI (PC-3 prostate): > 100 µM

SMILES: COc1ccc(/C=C/C(=O)c2ccc3cc(OC)c(OC)cc3c2)cc1OC
- GI50 (BT-549 breast): 2550 nM
- TGI (BT-549 breast): 8.39 µM
- GI50 (PC-3 prostate): 3.08 µM
- TGI (PC-3 prostate): 13.3 µM

SMILES: COc1ccc2c(c1)sc1nc(-c3ccccc3)c(-c3ccc(O)c(OC)c3)n12
- GI50 (BT-549 breast): 17500 nM
- TGI (BT-549 breast): > 100 µM
- GI50 (PC-3 prostate): 26.3 µM
- TGI (PC-3 prostate): > 100 µM

SMILES: COC(=O)c1ccc2c(c1)C(=O)c1c-2n(CCCN)c(=O)c2cc([N+](=O)[O-])ccc12
- GI50 (BT-549 breast): 265 nM
- TGI (BT-549 breast): 1.77 µM
- GI50 (PC-3 prostate): < 0.0373 µM
- TGI (PC-3 prostate): 1.49 µM

SMILES: C=CC(=O)N1CCC([C@@H]2CCNc3c(C(N)=O)c(-c4ccc(Oc5ccccc5)cc4)nn32)CC1
- GI50 (BT-549 breast): 11900 nM
- TGI (BT-549 breast): 31 µM
- GI50 (PC-3 prostate): 20.5 µM
- TGI (PC-3 prostate): 69.3 µM

SMILES: ICCC(c1ccccc1)(c1ccccc1)c1ccccc1
- GI50 (PC-3 prostate): 4.32 µM
- TGI (PC-3 prostate): 19.4 µM

SMILES: C[C@]12CCC3c4ccc(O)cc4CCC3C1Cc1ccc(O)cc12 (some centres undefined)
- GI50 (BT-549 breast): 6570 nM
- TGI (BT-549 breast): 23.4 µM
- GI50 (PC-3 prostate): 7.25 µM
- TGI (PC-3 prostate): 22.4 µM
